Experimental data published in patent US9446116B2, “Peptide sequences and compositions” (priority 2006, dated 2016).

Columns and labels:
primary splenocytes = type: cell-based, C57BL/6-Tg(HLA-A2.1)1Enge/J mice; details: stimulation with P6 (data not shown)
Influenza A/PR/8/34 = type: in vivo, C57BL/6-Tg(HLA-A2.1)1Enge/J mice

**Q.** With IIGILHLILWILDRLFFKCIYRLF [P6] as the substance, how does the IL-4 production (primary splenocytes) read?
**A.** failure of stimulation with P6 to induce any IL-4 production

**Q.** How did the “succumbed to infection (mortality)” value (Influenza A/PR/8/34; CD8 depletion (anti-CD8 sera days 19 and 22), […], FIG. 3A) turn out when “NRP-v: Lysozyme (Sigma) denatured by boiling, used as the control non relevant preparation” was run?
**A.** 100%

**Q.** What about the mortality rate (Influenza A/PR/8/34; absence of CD8 depletion (irrelevant sera), FIG. 3B) of the same substance?
**A.** 100%
